Assay results from PubChem BioAssay AID1963976 (Molecular Pharmacology Branch, DTP, NCI, 2024).
pIC50: −log10 of the molar value. One block for each compound: values may come before it.

System: 435261-313-R-J1-PDC tumor spheroid viability
Test: Anticancer human tumor 435261-313-R-J1-PDC patient-derived colon adenocarcinoma cell line growth inhibition [PI3K]
Conditions: spheroids with HUVEC and MSC; for pIC50: curve of first compound; for viability, T/C: stronger effect = lower value
In short: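 Targeted small molecules plus PI3K inhibitors, half-log dose series from Cmax (default top 10 microM), were applied to heterotypic spheroids of cancer cells with HUVEC and MSCs. Viability indicated growth inhibition.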

[1] = second compound 0.00316 µM, first compound 0.0316 µM
[2] = second compound 0.00316 µM, first compound 0.1 µM
[3] = second compound 0.00316 µM, first compound 0.316 µM
[4] = second compound 0.00316 µM, first compound 1 µM
[5] = second compound 0.00316 µM, first compound 3.16 µM
[6] = second compound 0.00316 µM, first compound 10 µM
[7] = second compound 0.01 µM, first compound 0.0316 µM
[8] = second compound 0.01 µM, first compound 0.1 µM
[9] = second compound 0.01 µM, first compound 0.316 µM
[10] = second compound 0.01 µM, first compound 1 µM
[11] = second compound 0.01 µM, first compound 3.16 µM
[12] = second compound 0.01 µM, first compound 10 µM
[13] = second compound 0.0316 µM, first compound 0.0316 µM
[14] = second compound 0.0316 µM, first compound 0.1 µM
[15] = second compound 0.0316 µM, first compound 0.316 µM
[16] = second compound 0.0316 µM, first compound 1 µM
[17] = second compound 0.0316 µM, first compound 3.16 µM
[18] = second compound 0.0316 µM, first compound 10 µM
[19] = second compound 0.1 µM, first compound 0.0316 µM
[20] = second compound 0.1 µM, first compound 0.1 µM
[21] = second compound 0.1 µM, first compound 0.316 µM
[22] = second compound 0.1 µM, first compound 1 µM
[23] = second compound 0.1 µM, first compound 3.16 µM
[24] = second compound 0.1 µM, first compound 10 µM
[25] = second compound 0.316 µM, first compound 0.0316 µM
[26] = second compound 0.316 µM, first compound 0.1 µM
[27] = second compound 0.316 µM, first compound 0.316 µM
[28] = second compound 0.316 µM, first compound 1 µM
[29] = second compound 0.316 µM, first compound 3.16 µM
[30] = second compound 0.316 µM, first compound 10 µM
[31] = second compound 1 µM, first compound 0.0316 µM
[32] = second compound 1 µM, first compound 0.1 µM
[33] = second compound 1 µM, first compound 0.316 µM
[34] = second compound 1 µM, first compound 1 µM
[35] = second compound 1 µM, first compound 3.16 µM
[36] = second compound 1 µM, first compound 10 µM
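Further: spheroids exposed to compounds for 7 days.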

pIC50 (second compound 0.00316 µM): < 5.00
pIC50 (second compound 0.01 µM): < 5.00
pIC50 (second compound 0.0316 µM): < 5.00
pIC50 (second compound 0.1 µM): > 7.50
pIC50 (second compound 0.316 µM): > 7.50
pIC50 (second compound 1 µM): > 7.50
Structure (SMILES): C=CC(=O)N1CCN(c2nc(=O)n(-c3c(C)ccnc3C(C)C)c3nc(-c4c(O)cccc4F)c(F)cc23)C(C)C1 (stereo not drawn) + CC(Nc1ccc2c(c1)OCCn1cc(N3C(=O)OCC3C(F)F)nc1-2)C(N)=O
viability, T/C [1]: 83.2%
viability, T/C [2]: 81.4%
viability, T/C [3]: 111%
viability, T/C [4]: 126%
viability, T/C [5]: 117%
viability, T/C [6]: 120%
viability, T/C [7]: 99.2%
viability, T/C [8]: 88.4%
viability, T/C [9]: 95.1%
viability, T/C [10]: 89.5%
viability, T/C [11]: 91.7%
viability, T/C [12]: 111%
viability, T/C [13]: 70.7%
viability, T/C [14]: 78.6%
viability, T/C [15]: 71.5%
viability, T/C [16]: 70.2%
viability, T/C [17]: 87.4%
viability, T/C [18]: 101%
viability, T/C [19]: 49.7%
viability, T/C [20]: 42.6%
viability, T/C [21]: 45.5%
viability, T/C [22]: 37.9%
viability, T/C [23]: 60.9%
viability, T/C [24]: 54.5%
viability, T/C [25]: 20.8%
viability, T/C [26]: 22%
viability, T/C [27]: 27%
viability, T/C [28]: 22.8%
viability, T/C [29]: 25.5%
viability, T/C [30]: 21.1%
viability, T/C [31]: 20.2%
viability, T/C [32]: 16.5%
viability, T/C [33]: 18.1%
viability, T/C [34]: 20.4%
viability, T/C [35]: 14.9%
viability, T/C [36]: 17.9%

pIC50 (second compound 0.00316 µM): 6.91
pIC50 (second compound 0.01 µM): 7.51
pIC50 (second compound 0.0316 µM): 7.69
pIC50 (second compound 0.1 µM): > 8.50
pIC50 (second compound 0.316 µM): > 8.50
pIC50 (second compound 1 µM): > 8.50
Structure (SMILES): CCN1CCN(Cc2ccc(Nc3ncc(F)c(-c4cc(F)c5nc(C)n(C(C)C)c5c4)n3)nc2)CC1 + CC(Nc1ccc2c(c1)OCCn1cc(N3C(=O)OCC3C(F)F)nc1-2)C(N)=O
viability, T/C (second compound 0.00316 µM, first compound 0.00316 µM): 94%
viability, T/C (second compound 0.00316 µM, first compound 0.01 µM): 71.5%
viability, T/C [1]: 53.1%
viability, T/C [2]: 66.9%
viability, T/C [3]: 37%
viability, T/C [4]: 33.9%
viability, T/C (second compound 0.01 µM, first compound 0.00316 µM): 71.5%
viability, T/C (second compound 0.01 µM, first compound 0.01 µM): 103%
viability, T/C [7]: 49.1%
viability, T/C [8]: 46.4%
viability, T/C [9]: 33.8%
viability, T/C [10]: 33.8%
viability, T/C (second compound 0.0316 µM, first compound 0.00316 µM): 73.6%
viability, T/C (second compound 0.0316 µM, first compound 0.01 µM): 58.5%
viability, T/C [13]: 47.3%
viability, T/C [14]: 29.1%
viability, T/C [15]: 28.3%
viability, T/C [16]: 30.5%
viability, T/C (second compound 0.1 µM, first compound 0.00316 µM): 37.7%
viability, T/C (second compound 0.1 µM, first compound 0.01 µM): 20.3%
viability, T/C [19]: 25.9%
viability, T/C [20]: 21.1%
viability, T/C [21]: 19.8%
viability, T/C [22]: 25.3%
viability, T/C (second compound 0.316 µM, first compound 0.00316 µM): 17.9%
viability, T/C (second compound 0.316 µM, first compound 0.01 µM): 20.8%
viability, T/C [25]: 16.7%
viability, T/C [26]: 16.8%
viability, T/C [27]: 17.2%
viability, T/C [28]: 16%
viability, T/C (second compound 1 µM, first compound 0.00316 µM): 17.1%
viability, T/C (second compound 1 µM, first compound 0.01 µM): 15.3%
viability, T/C [31]: 14%
viability, T/C [32]: 15.2%
viability, T/C [33]: 15.1%
viability, T/C [34]: 13.4%

pIC50 (second compound 0.00316 µM): 6.25
pIC50 (second compound 0.01 µM): 6.35
pIC50 (second compound 0.0316 µM): 6.65
pIC50 (second compound 0.1 µM): 7.50
pIC50 (second compound 0.316 µM): > 7.50
pIC50 (second compound 1 µM): > 7.50
Structure (SMILES): Cn1ncc(Cl)c1-c1cc(C(=O)NC(CN)Cc2cccc(F)c2)sc1Cl (stereo not drawn) + CC(Nc1ccc2c(c1)OCCn1cc(N3C(=O)OCC3C(F)F)nc1-2)C(N)=O
viability, T/C [1]: 75.2%
viability, T/C [2]: 84.9%
viability, T/C [3]: 67.3%
viability, T/C [4]: 31.6%
viability, T/C [5]: 18.7%
viability, T/C [6]: 7.28%
viability, T/C [7]: 67.9%
viability, T/C [8]: 92.8%
viability, T/C [9]: 51.9%
viability, T/C [10]: 31.2%
viability, T/C [11]: 19.1%
viability, T/C [12]: 6.44%
viability, T/C [13]: 67.8%
viability, T/C [14]: 91.3%
viability, T/C [15]: 37.5%
viability, T/C [16]: 25.3%
viability, T/C [17]: 17.2%
viability, T/C [18]: 5.79%
viability, T/C [19]: 50.8%
viability, T/C [20]: 38%
viability, T/C [21]: 21.1%
viability, T/C [22]: 19.4%
viability, T/C [23]: 15.4%
viability, T/C [24]: 5.16%
viability, T/C [25]: 20.9%
viability, T/C [26]: 20.1%
viability, T/C [27]: 14%
viability, T/C [28]: 16.5%
viability, T/C [29]: 13%
viability, T/C [30]: 4.44%
viability, T/C [31]: 18.2%
viability, T/C [32]: 13.5%
viability, T/C [33]: 15.7%
viability, T/C [34]: 17.2%
viability, T/C [35]: 11.4%
viability, T/C [36]: 2.55%

pIC50 (second compound 0.00316 µM): 6.38
pIC50 (second compound 0.01 µM): 6.66
pIC50 (second compound 0.0316 µM): 6.98
pIC50 (second compound 0.1 µM): > 7.50
pIC50 (second compound 0.316 µM): > 7.50
pIC50 (second compound 1 µM): > 7.50
Structure (SMILES): Cn1nccc1Nc1nccc(-c2ccn(C(CO)c3ccc(Cl)c(F)c3)c(=O)c2)n1 (stereo not drawn) + CC(Nc1ccc2c(c1)OCCn1cc(N3C(=O)OCC3C(F)F)nc1-2)C(N)=O
viability, T/C [1]: 90.4%
viability, T/C [2]: 73.3%
viability, T/C [3]: 51.7%
viability, T/C [4]: 40.1%
viability, T/C [5]: 22.1%
viability, T/C [6]: 12.8%
viability, T/C [7]: 72.6%
viability, T/C [8]: 71.7%
viability, T/C [9]: 39.5%
viability, T/C [10]: 25.6%
viability, T/C [11]: 27%
viability, T/C [12]: 11.7%
viability, T/C [13]: 68%
viability, T/C [14]: 52.1%
viability, T/C [15]: 28.7%
viability, T/C [16]: 18.9%
viability, T/C [17]: 14.9%
viability, T/C [18]: 8.18%
viability, T/C [19]: 38.6%
viability, T/C [20]: 23.1%
viability, T/C [21]: 16.9%
viability, T/C [22]: 11.8%
viability, T/C [23]: 10.1%
viability, T/C [24]: 5.9%
viability, T/C [25]: 19.6%
viability, T/C [26]: 16.3%
viability, T/C [27]: 9.92%
viability, T/C [28]: 8.05%
viability, T/C [29]: 5.78%
viability, T/C [30]: 3.34%
viability, T/C [31]: 16.8%
viability, T/C [32]: 12.2%
viability, T/C [33]: 6.71%
viability, T/C [34]: 6.3%
viability, T/C [35]: 4.27%
viability, T/C [36]: 0.75%
